Key:
Potassium Channel [KATP] = assay: Lead Profiling Screen, Eurofins Panlabs; assay type: binding, hamster; conditions: ham
Adenosine A3 = Adenosine A3 (Homo sapiens, UniProt P0DMS8); assay: Lead Profiling Screen, Eurofins Panlabs; assay type: binding; conditions: Adenosine A3, hum, read-out: % inh at 10 μM
From the text: (§1) Nonetheless, as a non-aryl/heterobiaryl acetylene mGlu5 NAM with an encouraging in vivo rodent PK profile, we wished to further assess VU6043653 as a novel chemotype. Therefore, we compared metabolites in multiple species to better understand species differences in clearance and metabolism. […] Consistent with the high plasma clearance observed in dogs, high turnover was observed more so in dog hepatocytes than any other species tested (see the Supporting Information for additional details and results). To further evaluate our novel chemotype, the off-target and safety/toxicity profiles for this compound were further investigated.
(§2) Table S2. Lead Profiling Screen – Eurofins Panlabs for VU6043653.
(§3) Assay Name Species % inh at 10 μM
(§4) Androgen (Testosterone) hum 75
(§5) Calcium Channel L-Type, Benzothiazepine rat 22
(§6) Calcium Channel L-Type, Dihydropyridine rat 1
(§7) Calcium Channel N-Type rat -8
(§8) Epidermal Growth Factor (EGF) hum -3
(§9) GABAA, Flunitrazepam, Central rat 0
(§10) GABAA, Muscimol, Central rat -5
(§11) Glutamate, Kainate rat -7
(§12) Glutamate, NMDA, Agonism rat 3
(§13) Glutamate, NMDA, Glycine rat -18
(§14) Glutamate, NMDA, Phencyclidine rat -4
(§15) Imidazoline I2, Central rat -1

Androgen (Testosterone) = Androgen (Testosterone) (Homo sapiens, UniProt P10275); assay: Lead Profiling Screen, Eurofins Panlabs; assay type: binding; conditions: hum, read-out: % inh at 10 μM
From the text: as §1, §2, §3, §4, §5, §6, §7, §8, §9, §10, §11, §12, §13, §14, §15

[1] = Intrinsic clearance in rat liver microsomes; assay type: in vitro ADME
Experimental: (§16) Mean values for each species were calculated from 3 replicates.
(§17) Intrinsic Clearance in Rat and Human Liver Microsomes
(§18) The in vitro intrinsic clearance (CL int) was investigated in commercially obtained hepatic microsomes from rat and human donors using the substrate depletion (i.e., loss-of-parent vs. time, or t 1/2 method) approach with analyte detection via liquid chromatography-tandem mass spectrometry (LC-MS/MS). For each species, mean %parent remaining values at each time point were calculated from replicates raw data (analyte:IS peak area ratios) and used to determine in vitro t 1/2 and CLint.
(§19) Experiments were carried out using a robot-assisted (TECAN model Evo 200). Compound was incubated (1 µM final concentration) in buffer (100 mM potassium phosphate pH 7.4 with 3 mM MgCl2) containing hepatic microsomes (0.5 mg/mL final concentration) from multiple species, discretely, at 37 °C under constant orbital shaking. After 5 minutes (pre-incubation), reactions were initiated by addition of nicotinamide adenine dinucleotide phosphate (NADPH, 1 mM final concentration). At selected time intervals (0, 3, 7, 15, 25, and 45 minutes) post-addition of NADPH, aliquots (50 µL) were taken and placed into a 96-shallow-well plate containing ice cold acetonitrile (150 µL) with carbamazepine (IS, 50 nM). The plates were then centrifuged (3000 rcf at 4 °C) for 10 minutes. The supernatants were transferred to a new 96-shallow-well daughter plate and diluted (1:1 v/v) with water (Milli-Q filtered). The plates were then sealed in preparation for LC-MS/MS analysis (see below).
(§20) Raw LC-MS/MS peak area data generated from the assay samples were used to construct natural log-transformed %parent remaining vs. time plots (using t = 0 minute post-NADPH addition sample data as starting point set to 100%). In vitro compound half-life (t 1/2) values were obtained using the following […]
(§21) k is the slope from linear regression analysis of the natural log-transformed data (using means from Where all replicates at each time point). Resulting t 1/2 values were then used to calculate hepatic CLint values according to the following equation and with the use of species-specific scale-up factors for liver weight (grams) per total body weight (kg): […]
(§22) CLint = in vitro t1/2 x 0.5 mg microsomes x 1 gram liver x kg body wt aScale-up factors used are 45 (rat) and 20 (human).4
(§23) Predicted hepatic clearance (CLhep) was calculated using the following equation: […]
(§24) Qh represents hepatic blood flow (mL/min/kg): 21 for human, 70 for rat, and 90 for mouse.
(§25) Prepared samples were injected (10 µL each) onto an AB Sciex Triple Quad 4500 mass spectrometer system with an Agilent 1260 Infinity II pump and autosampler. Mass spectrometer conditions are described in Table S1. Quantitation of compounds was performed via AB Sciex Multiquant software using the raw analyte:IS peak area ratios. The typical detection range was 0.5 ng/mL to ≥ 5,000 ng/mL utilizing a quadratic equation regression with 1/x2 weighting.
(§26) Correction for dilution of all brain samples (in extraction buffer and subsequently in blank plasma, as previously described) was performed post-quantitation. The corrections for dilution in extraction buffer employed correction factors specific to each brain weight (not shown).

CYP 3A4 = target: T1, CYP 3A4 (Homo sapiens, UniProt P08684); assay: P450 inhibition in pooled human liver microsomes; assay type: in vitro ADME; conditions: pooled HLM, NADPH, CYP-specific probe substrates; listed as VU6043653
T1 construct: from tissue; host or cells: pooled human liver microsomes (per the earlier reading)

Interleukin IL-1 R1 = Interleukin IL-1 R1 (Homo sapiens, UniProt P14778); assay: Lead Profiling Screen, Eurofins Panlabs; assay type: binding; conditions: Interleukin IL-1 R1, hum, read-out: % inh at 10 μM
Opiate κ (OP2, KOP) = Opiate κ (OP2, KOP) (Homo sapiens, UniProt P41145); assay: Lead Profiling Screen, Eurofins Panlabs; assay type: binding; conditions: hum, read-out: % inh at 10 μM
[2] = target: Serotonin (5-Hydroxytryptamine) 5-HT2B (Homo sapiens, UniProt P41595); assay: Lead Profiling Screen, Eurofins Panlabs; assay type: binding; conditions: Serotonin 5-HT2B, hum, read-out: % inh at 10 μM
Muscarinic M1 = Muscarinic M1 (Homo sapiens, UniProt P11229); assay: Lead Profiling Screen, Eurofins Panlabs; assay type: binding; conditions: Muscarinic M1, hum, read-out: % inh at 10 μM
Melatonin MT1 = Melatonin MT1 (Homo sapiens, UniProt P48039); assay: Lead Profiling Screen, Eurofins Panlabs; assay type: binding; conditions: Melatonin MT1, hum, read-out: % inh at 10 μM
[3] = target: Transporter, Norepinephrine (NET) (Homo sapiens, UniProt P23975); assay: Lead Profiling Screen, Eurofins Panlabs; assay type: binding; conditions: hum, read-out: % inh at 10 μM
[4] = target: Transporter, Dopamine (DAT) (Homo sapiens, UniProt Q01959); assay: Lead Profiling Screen, Eurofins Panlabs; assay type: binding; conditions: hum, read-out: % inh at 10 μM
CYP 1A2 = target: T2, CYP 1A2 (Homo sapiens, UniProt P05177); assay: P450 inhibition in pooled human liver microsomes; assay type: in vitro ADME; conditions: pooled HLM, NADPH, CYP-specific probe substrates; listed as VU6043653
T2 construct: from tissue; host or cells: pooled human liver microsomes (per the earlier reading)

[5] = target: Nicotinic Acetylcholine α1, Bungarotoxin (Homo sapiens, UniProt P02708+P07510+Q07001); assay: biochemical; assay type: binding; conditions: read-out: % inh at 10 μM
[6] = target: Platelet Activating Factor (PAF) (Homo sapiens, UniProt P25105); assay: Lead Profiling Screen, Eurofins Panlabs; assay type: binding; conditions: hum, read-out: % inh at 10 μM
[7] = Intrinsic clearance in human liver microsomes; assay type: in vitro ADME
Experimental: as §16, §17, §18, §19, §20, §21, §22, §23, §24, §25, §26

[8] = predicted hepatic clearance based on microsomal CLint

T2 sequence (P05177 whole entry): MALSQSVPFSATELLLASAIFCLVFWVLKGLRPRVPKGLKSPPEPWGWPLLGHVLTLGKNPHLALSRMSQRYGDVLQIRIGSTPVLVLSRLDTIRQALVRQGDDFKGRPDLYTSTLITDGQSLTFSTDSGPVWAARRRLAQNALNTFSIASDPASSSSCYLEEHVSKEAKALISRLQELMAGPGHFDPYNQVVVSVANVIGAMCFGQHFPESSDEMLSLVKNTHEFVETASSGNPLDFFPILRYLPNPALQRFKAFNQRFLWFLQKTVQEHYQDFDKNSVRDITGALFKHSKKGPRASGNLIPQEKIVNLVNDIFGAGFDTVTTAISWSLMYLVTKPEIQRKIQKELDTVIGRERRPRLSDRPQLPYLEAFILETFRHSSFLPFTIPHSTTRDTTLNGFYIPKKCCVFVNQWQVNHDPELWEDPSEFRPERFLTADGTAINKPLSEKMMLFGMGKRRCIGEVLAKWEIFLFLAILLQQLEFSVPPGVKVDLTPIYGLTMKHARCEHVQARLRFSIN
T1 sequence (P08684 whole entry): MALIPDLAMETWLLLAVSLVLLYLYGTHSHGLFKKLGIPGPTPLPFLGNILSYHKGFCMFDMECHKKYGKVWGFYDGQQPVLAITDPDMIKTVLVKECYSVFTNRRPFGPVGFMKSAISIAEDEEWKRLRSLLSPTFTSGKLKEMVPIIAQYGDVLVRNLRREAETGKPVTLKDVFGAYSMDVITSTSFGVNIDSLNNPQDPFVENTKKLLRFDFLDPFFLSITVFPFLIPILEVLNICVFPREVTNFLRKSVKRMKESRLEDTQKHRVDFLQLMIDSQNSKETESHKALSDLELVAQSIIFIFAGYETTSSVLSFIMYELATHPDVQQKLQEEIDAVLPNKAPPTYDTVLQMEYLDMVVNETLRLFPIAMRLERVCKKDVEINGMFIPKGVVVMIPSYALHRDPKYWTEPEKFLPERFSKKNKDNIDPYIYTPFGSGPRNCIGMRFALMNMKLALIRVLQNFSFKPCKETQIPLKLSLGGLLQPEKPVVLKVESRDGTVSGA
Chain of Melatonin MT1 (P48039 whole entry): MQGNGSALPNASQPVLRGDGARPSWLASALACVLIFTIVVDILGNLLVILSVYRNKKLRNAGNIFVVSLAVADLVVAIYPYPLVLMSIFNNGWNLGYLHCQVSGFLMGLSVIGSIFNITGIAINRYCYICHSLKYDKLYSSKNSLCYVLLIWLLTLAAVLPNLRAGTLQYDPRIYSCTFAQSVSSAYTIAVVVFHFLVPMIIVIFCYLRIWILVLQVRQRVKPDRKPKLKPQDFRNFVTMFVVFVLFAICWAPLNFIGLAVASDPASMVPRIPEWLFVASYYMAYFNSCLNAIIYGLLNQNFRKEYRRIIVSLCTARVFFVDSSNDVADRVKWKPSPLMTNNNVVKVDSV
Chain of Transporter, Dopamine (DAT) (Q01959 whole entry): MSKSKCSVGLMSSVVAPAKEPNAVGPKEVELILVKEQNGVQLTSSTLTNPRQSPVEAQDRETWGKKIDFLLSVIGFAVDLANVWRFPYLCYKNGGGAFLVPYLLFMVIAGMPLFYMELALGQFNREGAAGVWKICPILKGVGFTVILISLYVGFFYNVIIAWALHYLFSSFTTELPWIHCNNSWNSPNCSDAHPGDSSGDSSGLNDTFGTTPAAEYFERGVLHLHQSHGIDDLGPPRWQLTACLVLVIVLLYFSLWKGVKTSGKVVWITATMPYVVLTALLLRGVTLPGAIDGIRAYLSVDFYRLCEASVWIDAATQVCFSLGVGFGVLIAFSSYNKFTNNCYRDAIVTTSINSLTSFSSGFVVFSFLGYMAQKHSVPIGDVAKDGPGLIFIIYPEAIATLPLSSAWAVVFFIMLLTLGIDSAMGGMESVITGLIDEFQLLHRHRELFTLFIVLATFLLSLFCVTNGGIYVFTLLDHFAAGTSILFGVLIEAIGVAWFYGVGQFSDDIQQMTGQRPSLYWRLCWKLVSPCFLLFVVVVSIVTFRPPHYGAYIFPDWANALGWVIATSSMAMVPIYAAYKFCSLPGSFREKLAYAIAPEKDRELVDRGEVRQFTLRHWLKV
Chain of Serotonin (5-Hydroxytryptamine) 5-HT2B (P41595 whole entry): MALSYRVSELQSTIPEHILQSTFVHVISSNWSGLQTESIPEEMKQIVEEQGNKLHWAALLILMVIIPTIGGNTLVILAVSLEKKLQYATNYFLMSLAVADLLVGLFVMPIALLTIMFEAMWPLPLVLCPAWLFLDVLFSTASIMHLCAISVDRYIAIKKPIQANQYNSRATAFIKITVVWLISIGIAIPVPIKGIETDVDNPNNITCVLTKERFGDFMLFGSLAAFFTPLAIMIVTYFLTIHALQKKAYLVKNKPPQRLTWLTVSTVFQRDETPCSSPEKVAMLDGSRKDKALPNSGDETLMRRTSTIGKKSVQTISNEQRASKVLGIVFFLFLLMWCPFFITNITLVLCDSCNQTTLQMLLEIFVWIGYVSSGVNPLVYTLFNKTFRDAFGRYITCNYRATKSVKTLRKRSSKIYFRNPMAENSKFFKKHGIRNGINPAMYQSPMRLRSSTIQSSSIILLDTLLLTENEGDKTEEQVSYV
Chain of Androgen (Testosterone) (P10275 whole entry): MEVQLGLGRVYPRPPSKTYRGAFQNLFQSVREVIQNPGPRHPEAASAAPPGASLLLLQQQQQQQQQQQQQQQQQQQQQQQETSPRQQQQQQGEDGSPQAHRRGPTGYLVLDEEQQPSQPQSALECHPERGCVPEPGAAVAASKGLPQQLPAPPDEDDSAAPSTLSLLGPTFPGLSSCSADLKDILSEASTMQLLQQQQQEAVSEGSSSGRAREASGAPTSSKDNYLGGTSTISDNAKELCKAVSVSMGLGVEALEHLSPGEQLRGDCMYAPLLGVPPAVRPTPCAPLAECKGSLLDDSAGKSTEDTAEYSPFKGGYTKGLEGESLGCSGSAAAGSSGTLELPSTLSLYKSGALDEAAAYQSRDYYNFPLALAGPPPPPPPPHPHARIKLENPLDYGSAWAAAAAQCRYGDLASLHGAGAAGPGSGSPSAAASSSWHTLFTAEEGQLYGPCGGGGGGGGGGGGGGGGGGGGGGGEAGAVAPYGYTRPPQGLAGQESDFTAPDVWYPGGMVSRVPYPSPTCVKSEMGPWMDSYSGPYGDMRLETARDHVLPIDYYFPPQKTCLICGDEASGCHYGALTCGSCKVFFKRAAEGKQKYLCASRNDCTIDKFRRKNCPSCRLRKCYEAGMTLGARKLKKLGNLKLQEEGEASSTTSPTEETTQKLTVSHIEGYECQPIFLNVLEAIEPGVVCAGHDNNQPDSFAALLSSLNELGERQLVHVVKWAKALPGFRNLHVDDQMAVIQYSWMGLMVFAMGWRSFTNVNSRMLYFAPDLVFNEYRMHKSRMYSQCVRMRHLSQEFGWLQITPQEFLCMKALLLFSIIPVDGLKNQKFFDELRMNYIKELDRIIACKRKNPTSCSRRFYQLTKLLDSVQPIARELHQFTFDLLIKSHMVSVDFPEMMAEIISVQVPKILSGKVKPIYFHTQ
Chain of Platelet Activating Factor (PAF) (P25105 whole entry): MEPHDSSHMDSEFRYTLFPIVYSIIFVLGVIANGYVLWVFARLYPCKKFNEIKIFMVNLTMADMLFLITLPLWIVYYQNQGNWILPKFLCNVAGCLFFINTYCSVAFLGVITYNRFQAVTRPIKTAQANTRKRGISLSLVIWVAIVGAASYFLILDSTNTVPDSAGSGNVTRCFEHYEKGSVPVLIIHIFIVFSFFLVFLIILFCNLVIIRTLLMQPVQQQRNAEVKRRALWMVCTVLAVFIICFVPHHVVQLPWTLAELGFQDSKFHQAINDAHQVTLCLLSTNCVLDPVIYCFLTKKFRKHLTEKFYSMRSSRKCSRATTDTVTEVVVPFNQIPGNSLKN
Chain of Opiate κ (OP2, KOP) (P41145 whole entry): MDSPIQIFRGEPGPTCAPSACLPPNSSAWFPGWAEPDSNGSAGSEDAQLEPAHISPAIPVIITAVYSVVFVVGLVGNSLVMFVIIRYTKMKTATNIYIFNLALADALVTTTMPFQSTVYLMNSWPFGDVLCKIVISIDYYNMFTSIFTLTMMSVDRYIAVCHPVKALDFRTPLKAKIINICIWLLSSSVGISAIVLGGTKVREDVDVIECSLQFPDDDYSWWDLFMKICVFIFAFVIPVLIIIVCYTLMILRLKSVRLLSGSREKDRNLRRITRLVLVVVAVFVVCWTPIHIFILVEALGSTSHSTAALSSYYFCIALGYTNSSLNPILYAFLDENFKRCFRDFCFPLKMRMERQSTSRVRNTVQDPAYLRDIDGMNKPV
Chain of Muscarinic M1 (P11229 whole entry): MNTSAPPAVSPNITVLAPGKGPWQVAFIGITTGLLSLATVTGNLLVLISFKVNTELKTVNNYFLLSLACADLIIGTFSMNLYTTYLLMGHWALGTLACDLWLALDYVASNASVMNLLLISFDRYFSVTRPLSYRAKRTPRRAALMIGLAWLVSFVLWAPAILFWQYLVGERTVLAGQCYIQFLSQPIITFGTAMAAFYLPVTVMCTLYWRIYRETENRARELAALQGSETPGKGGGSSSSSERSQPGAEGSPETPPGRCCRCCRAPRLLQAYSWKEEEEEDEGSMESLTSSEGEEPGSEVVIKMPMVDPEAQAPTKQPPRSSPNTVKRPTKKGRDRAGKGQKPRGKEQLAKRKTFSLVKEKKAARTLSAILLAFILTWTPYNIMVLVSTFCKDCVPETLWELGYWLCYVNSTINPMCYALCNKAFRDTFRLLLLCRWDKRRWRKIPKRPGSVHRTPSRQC
Chain of Adenosine A3 (P0DMS8 whole entry): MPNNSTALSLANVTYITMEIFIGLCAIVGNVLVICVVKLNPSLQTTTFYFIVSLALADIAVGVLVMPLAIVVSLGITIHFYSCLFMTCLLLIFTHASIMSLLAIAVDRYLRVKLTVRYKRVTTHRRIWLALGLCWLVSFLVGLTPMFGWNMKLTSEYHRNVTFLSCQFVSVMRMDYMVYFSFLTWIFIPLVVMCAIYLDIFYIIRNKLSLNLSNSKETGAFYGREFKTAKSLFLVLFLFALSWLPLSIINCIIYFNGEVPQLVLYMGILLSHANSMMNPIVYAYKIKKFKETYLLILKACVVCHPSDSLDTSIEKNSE

In the case of `Cc1cc(Oc2cnn(C)c2)cc(C(=O)Nc2ccc(F)cn2)n1` [22iA], the “% inh at 10 μM” value (Potassium Channel [KATP]) is reported as 2%, the inhibition at 10 µM (Adenosine A3) is reported as no less than 70% and the inhibition at 10 µM (Androgen (Testosterone)) is reported as no less than 70%. The CLint scaled at 40 min, 1 µM ([1]; pH 7.4, rat liver microsomes) was 48 mL/min/kg, the “CLhep, rat” value [1, 8] was 28 mL/min/kg and the IC50 (CYP 3A4) was no less than 30 µM. For the same compound, the inhibition at 10 µM (Interleukin IL-1 R1) was -7%, the inhibition at 10 µM (Opiate κ (OP2, KOP)) was 2% and the inhibition at 10 µM [2] was 40%. It also gave an inhibition at 10 µM (Muscarinic M1) of -13%, an inhibition at 10 µM (Melatonin MT1) of 15% and an inhibition at 10 µM [3] of 63%. For the same compound, the inhibition at 10 µM [4] was 25%, the IC50 (CYP 1A2) was no less than 30 µM and the inhibition at 10 µM [5] was -12%. For the same compound, the inhibition at 10 µM [6] was 3%, the CLint scaled at 40 min, 1 µM ([7]; pH 7.4, human liver microsomes) was 9 mL/min/kg and the “CLhep, human” value [7, 8] was 6 mL/min/kg.

From paper PMC11647725, “Discovery of 4-(5-Membered)Heteroarylether-6-methylpicolinamide Negative Allosteric Modulators of Metabotropic Glutamate Receptor Subtype 5” (ACS Medicinal Chemistry Letters, 2024)
